# Source: patent US6845328B2, “Screening methods using the crystal structure of ribosomal protein L11/GTPase activating region rRNA complex” (University of Utah Research Foundation, priority 1999, dated 2005)
# “Also recorded” adds a separate entry of the source.
# Columns and labels:
# [1] = tested on: E. coli S30 lysate and luciferase mRNA; settings: bioluminescence; cited from earlier work
# GTPase centre-59 mer = assay: Filter binding assay of thiostrepton to GTPase centre RNA (96-well, displacement format); settings: read-out: dissociation constant for the thiostrepton/GTPase centre-59 mer complex
# Protocol: Thiostrepton binding to GTPase centre RNA can be monitored by a filter binding assays (Uchiumi et al., 1995, Biol. Chem., 270(50):29889-93; Draper et al., 1988, Methods Enzymol., 164:203-20). The filter binding assay can be transformed to a 96-well format using Millipore MHAB (mixed cellulose ester) 96-well plates. The dissociation constant for the thiostrepton/GTPase centre-59 mer complex of 1 uM is in good accordance with the literature. Additionally, filter binding can show the cooperativity in binding of thiostrepton and L11. Thermotoga maritima ribosomes are known to be sensitive to thiostrepton (Londei et al., 1988, J. Bacteriol., 170(9):4353-60), although 100-fold less than B. stearothermophilus ribosomes. The affinity of thiostrepton for Thermotoga GTPase center RNA in vitro has not yet been determined.
# ^35S- or ^32P-labelled RNA is prepared by transcription in the presence of radiolabelled nucleotides. The labelled RNAs are purified by gel electrophoresis or chromatography by reverse-phase. […] Association constants between RNA and thiostrepton in the presence or absence of inhbitor are determined in 100 ul reactions containing 10 mM Tris-HCl (pH 7.4), 3 mM MgCl2, 175 mM NH4Cl and 5% v/v DMSO. […]
# The relative amounts of RNA retained in the presence and absence of inhibitor can be determined by quantitation of the radioactivity on each filter. […]
# GAR RNA = settings: RNA without L11; read-out: Kd, affinity for the RNA alone; cited from earlier work
# isolated L11 = isolated L11 (Escherichia coli, UniProt P0A7J7); settings: L11 without RNA; cited from earlier work
# 23S RNA = settings: equilibrium dialysis; read-out: dissociation constant of thiostrepton/23S RNA; cited from earlier work
# intact ribosomes = intact ribosomes (Escherichia coli, UniProt P0A7J7); settings: higher than for 23S RNA; cited from earlier work
# [2] = molecular target: T1, Thermotoga maritima ribosomes (Thermotoga maritima, UniProt P29395); settings: less than B. stearothermophilus ribosomes; cited from earlier work
# T1 sequence (P29395 2-141 limits assumed): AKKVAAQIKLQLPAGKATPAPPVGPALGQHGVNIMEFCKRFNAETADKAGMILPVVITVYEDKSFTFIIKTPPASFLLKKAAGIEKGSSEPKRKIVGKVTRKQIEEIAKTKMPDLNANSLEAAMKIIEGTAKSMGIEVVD
# 70S ribosomes / EF-G = 70S ribosomes / EF-G (Escherichia coli, UniProt P0A7J7); settings: cited from earlier work
# 50S subunits = 50S subunits (Escherichia coli, UniProt P0A7J7); settings: cited from earlier work
# Chain of 50S subunits (P0A7J7 2-142): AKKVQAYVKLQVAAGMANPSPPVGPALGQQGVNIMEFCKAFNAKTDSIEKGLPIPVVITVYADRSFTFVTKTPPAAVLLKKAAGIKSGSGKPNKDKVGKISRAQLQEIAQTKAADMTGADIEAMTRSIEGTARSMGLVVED
# Chain of 70S ribosomes / EF-G (P0A7J7 2-142): as above
# Chain of intact ribosomes (P0A7J7 2-142): as above
# Chain of isolated L11 (P0A7J7 whole entry): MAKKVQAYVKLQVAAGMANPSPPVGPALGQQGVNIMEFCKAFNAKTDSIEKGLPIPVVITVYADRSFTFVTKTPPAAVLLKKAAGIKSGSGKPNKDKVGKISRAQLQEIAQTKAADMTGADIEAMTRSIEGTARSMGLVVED
SMILES,yield of active luciferase compared to the control [1],Kd (GTPase centre-59 mer),Kd (GAR RNA),binding to isolated L11 (isolated L11),Kd (23S RNA),affinity to intact ribosomes relative to 23S RNA (intact ribosomes),sensitivity of ribosomes to thiostrepton relative to B. stearothermophilus ribosomes [2],effect on hydrolysis of GTP by EF-G (70S ribosomes / EF-G),binding to 50S subunits (50S subunits)
O=C(N[C@H](CO)[C@H](O)c1ccc([N+](=O)[O-])cc1)C(Cl)Cl [chloramphenicol],decrease in yield of active luciferase,–,–,–,–,–,–,–,–
C=C(NC(=O)C(=C)NC(=O)c1csc(C2=N[C@@H]3c4csc(n4)[C@H]4NC(=O)c5csc(n5)[C@H]([C@](C)(O)[C@@H](C)O)NC(=O)[C@H]5CSC(=N5)/C(=C/C)NC(=O)[C@H]([C@@H](C)O)NC(=O)c5csc(n5)[C@]3(CC2)NC(=O)[C@H](C)NC(=O)C(=C)NC(=O)[C@H](C)NC(=O)[C@H]([C@@H](C)CC)N[C@@H]2C=Cc3c([C@H](C)O)cc(nc3[C@H]2O)C(=O)O[C@@H]4C)n1)C(N)=O [thiostrepton],decrease in yield of active luciferase,1 µM,0.4 µM,does not bind isolated L11,0.23 µM,100-1000 fold,100 fold,inhibits elongation factor G (EF-G)-dependent GTP hydrolysis; also recorded: inhibits hydrolysis of GTP by EF-G,binds essentially irreversibly to 50S subunits
C/C=C(\NC(=O)c1csc(-c2csc(-c3ccc4c(n3)-c3csc(n3)[C@H]([C@@H](C)O)NC(=O)c3csc(n3)[C@H](C(C)C)NC(=O)c3csc(n3)/C(=C/C)NC(=O)[C@H]([C@@H](C)O)NC(=O)c3csc-4n3)n2)n1)C(=O)NC[C@@H](C)O [micrococcin],–,–,–,–,–,–,–,stimulates GTP hydrolysis by EF-G,–
